# Assay results: US7393828B2, “Modified MscL protein channel” (Applied NanoSystems B.V., priority 2003, dated 2008)
# Key:
# [1] = target: MscL channel protein (G22C, cysteine at 22nd position) (Escherichia coli, UniProt P0A742, G22C); settings: for channel activity of modified protein in response to pH: same sample in the same buffer at different pHs; for pH at which channel activity starts: buffers at different pHs
# Source text: All synthesized compounds were attached to the MscL protein from E. coli via cysteine modification. In this example, the 22nd position of the protein was mutated to a cysteine.
# A membrane pellet fraction was obtained from a fermentor culture of E. coli pB104 cells containing the plasmid PB104 carrying the MscL(G22C)-6His construct. MscL was isolated to near homogeneity via a single nickel-nitriloacetic acid (Ni-NTA) metal-affinity chromatography step.
# The protein modification reaction was stopped and the excess label was removed by applying the sample into a gel filtration column. The protein concentration of elution fractions was determined by Bradford Assay.
# The modified protein was reconstituted in synthetic lipid membranes in order to follow the channel activity. For this purpose, DOPC:Cholesterol:DSPE-PEG (70:20:10 Molar ratio) liposomes were titrated with Triton-X100 until saturation. Titrated liposomes were mixed with modified protein in 1:120 (wt:wt) protein to lipid ratio. Biobeads were used to remove the detergent. A self-quenching dye, calcein, was added and included into the interior of the proteoliposomes during reconstitution.
# Proteoliposomes containing modified MscL protein were analyzed by a fluorescent dye efflux assay. The activity of the channel was measured as an increase in the fluorescence of a reporter molecule, the dye calcein. Calcein is included in the liposome interior at a self-quenching concentration, but when the calcein escapes into the exterior medium, the dilution is such that quenching is completely abolished.
# During reconstitution of the protein into the mixture of synthetic lipids in the presence of a detergent, a self-quenching dye, calcein, is also added into the mixture to a final concentration of 50 mM. After the reconstitution is completed by the removal of the detergent, the calcein-containing liposomal fraction was separated from the unencapsulated free calcein by passing the sample through a Sephadex G50 size exclusion column (FIG. 7A).
# A portion of the liposomal fraction is placed in 2 ml iso-osmotic buffer and the activity of the channels is followed by measuring the increase in fluorescence as calcein becomes dequenched upon being released through the channel protein in response to a stimulus (FIG. 7B). Fluorescence was monitored with a SLM 500 spectrofluorometer Excitation and emission wavelengths were 490 (slit 2 nm) and 520 nm (slit 4 nm), respectively. A positively charged MTS reagent (MTSET) was used as a positive control.
# The MscL protein was modified with the different pH-responsive compounds. The activity of the channel in response to pH was analyzed by the calcein efflux assay. In order to do that, the same buffer at different pHs were prepared and the same sample is analyzed in each buffer.
# The MscL protein was modified with a light-sensitive compound. The activity of the channel was analyzed in response to pH. After measuring the initial fluorescence value for samples at each pH, they were exposed to 366 nm light for five to ten minutes. Then, the measurement was continued as before.
# The protein from cysteine mutant MscL (cysteine in its 22nd amino acid position) was isolated and modified as explained in Example 2, except that the light-responsive compound E (see FIG. 12c) (P6—C1[X═I]) was dissolved in DM50 and incubated with the protein at a 1:500 molar ratio (protein:compound) for 45 minutes.
# (§1) The resulting modified channel was reconstituted in the presence of a fluorescent dye as explained in Example 3 for the calcein efflux experiment. Another sample of the modified channel was prepared for patch clamp experiments as indicated in Example 6.
# The protein was isolated and modified as in Example 2 and reconstituted in the presence of calcein as indicated in Example 3.
# [2] = target: MscL channel protein (cysteine in its 22nd amino acid position) (Escherichia coli, UniProt P0A742, G22C)
# Chain of MscL channel protein (cysteine in its 22nd amino acid position) (P0A742 whole entry G22C): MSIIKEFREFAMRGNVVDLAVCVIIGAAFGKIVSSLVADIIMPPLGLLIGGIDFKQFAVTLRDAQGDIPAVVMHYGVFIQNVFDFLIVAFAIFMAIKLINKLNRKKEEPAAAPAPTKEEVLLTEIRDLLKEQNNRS
# Method: The activity of the chemically modified MscL is analyzed real time at the single molecule level with patch clamp, a classical electrophysiological technique. This technique allows sealing a patch of membrane, which has embedded channel proteins in it, into the tip of a glass micropipette, and monitoring the ionic current flowing through the open channels in response to different conditions.
# As a mechanosensitive channel, unmodified MscL needs a significant amount of tension on the membrane to gate. In patch clamp conditions, it corresponds to the application of negative pressure almost as high as that causing rupturing of the patched membrane.
# The channel activity was measured by following its conductance.
# The protein from cysteine mutant MscL (cysteine in its 22nd amino acid position) was isolated, modified and reconstituted as explained in Example 2. After reconstitution, giant proteoliposomes were prepared as indicated (A. H. Delcour, B. Martinac, F. R. Blattner, C. Kung, Biophys. J. 1989, 56:631-636). Ten μl rehydrated lipids were placed in 100 μl bath solution and resulting giant liposomes were patched by using glass pipettes with 1 μm tip size. They were made from 100 μl borosilicate capillaries in Sutter 97/IVF micropipette puller. Single channel recordings were performed at +20 mV in symmetrical buffer conditions in 200 mM KCl, 100 mM MgCl2, 5 mM HEPES, pH 6-8. Data were amplified and filtered in Axopatch1D amplifier and sampled in Digidata 1322A digitizer. Recordings were analyzed with pCLAMP8 software.
# as §1
# Membranes having modified channels were patched at dark or five to ten minutes after illumination with 366 nm light.
# [3] = target: double cysteine MscL mutant (22nd and 23rd positions) (Escherichia coli, UniProt P0A742, G22C/V23C)
# Chain of double cysteine MscL mutant (22nd and 23rd positions) (P0A742 whole entry G22C/V23C): as the sequence (P0A742 whole entry G22C) above, with V23C counted along it
# Source text: In order to further improve modulation of the activity of chemically modified MscL, in addition to the amino acid at the 22nd position of the channel, the 23rd position is also replaced with cysteine. This way, if all the subunits are modified, one can introduce two times more charge.
# This example compares the single- and double-cysteine mutants for their performance in efflux from proteoliposomes.
# The protein from each mutant was obtained and modified with the Compound C (Q1[R1═R2=Me]-L1[n=2]—C3), as explained in Example 2, and the reconstitution for calcein efflux assay was as in Example 3.
# [4] = Solubility of the product in common solvents; assay type: physicochemical
# Chain of MscL channel protein (G22C, cysteine at 22nd position) (P0A742 whole entry G22C): as the sequence (P0A742 whole entry G22C) above
compound,measurement,setting,value
"C[N+](C)(C)CCSS(C)(=O)=O.[Br-] [MTSET, [2-(Trimethylammonium)-ethyl]-methanethiosulfonate bromide, reference compound]",channel opening after reaction with free sulfhydryl at 22nd position (positive control),[1]; MTSET 0.8 mM final concentration as trigger,always opens the channel
CS(=O)(=O)SCCOC(=O)CN [compound A],channel activity at physiological pH,[1]; physiological pH,some activity
same,channel activity of modified protein in response to pH,[1],"pH-dependent activation, especially at lower pHs"
CNCC(=O)OCCSS(C)(=O)=O [compound B],channel gating in patch clamp at pH 6.2,"[2]; pH 6.2, n=4",gated even without any applied negative pressure
same,"mean negative pressure applied (until membrane rupture, no gating)","[2]; pH 7.2, n=10",79 mmHg
same,channel activity in patch clamp at pH 7.2,"[2]; pH 7.2, n=10, negative pressure applied until the patched membrane ruptured",did not give any activity
same,pH at which channel activity starts,[1],< 8 pH
same,pKa,[1]; compound attached to MscL,approximately 8
same,channel activity of modified protein in response to pH,[1],pH-dependent activation
CN(C)CC(=O)OCCSS(C)(=O)=O [compound C],pH dependence of gating in patch clamp,[2]; different pHs,gated only at low pH environment
same,channel gating in patch clamp at pH 6.3,[2]; pH 6.3,spontaneous gating
same,pH at which channel activity starts,[1],~7.03 pH
same,"release of liposomal content at high pH, single mutant",[1]; high pH,did not release the liposomal content
same,channel activity at pH 7.5,[1]; pH 7.5,no activity
same,"release of liposomal content at high pH, double mutant",[3]; high pH,did not release the liposomal content
same,"release at low pH, double mutant compared with single mutant","[3]; low pH, two separate experiments",better release
"COc1cc(COC(=O)NCCSS(C)(=O)=O)c([N+](=O)[O-])cc1OC [compound D, methanethiosulfonic acid S-[2-(4,5-dimethoxy-2-nitro-benzyloxycarbonylamino)-ethyl] ester]",solubility in DMF and DMSO,"[4]; DMF, DMSO",soluble
same,solubility in dichloromethane and chloroform,"[4]; dichloromethane, chloroform",a little soluble
same,solubility in other common solvents,[4]; other common solvents,very badly soluble
same,channel activity after cleavage of the light-sensitive part,"[1]; after 366 nm light for five to ten minutes, different pHs",pH-dependent activity
same,channel activity before photolysis,"[1]; no illumination, different pHs",stayed inactive until the photolysis occurs
"COc1cc(COC(=O)CI)c([N+](=O)[O-])cc1OC [compound E, 4.5-dimethoxy-2-nitrobenzyl 2-iodoacetate]",channel gating in patch clamp at dark,"[2]; dark, negative pressure up to membrane rupture",no channel gating
same,channel gating in patch clamp after illumination,"[2]; five to ten minutes after illumination with 366 nm light, no tension",gated simultaneously with no tension
same,release of fluorescent dye in the dark,"[1]; dark, iso-osmotic conditions",did not give any release
same,release of fluorescent dye after illumination,"[1]; exposed to ultraviolet light, iso-osmotic conditions",released the fluorescent dye as soon as proteoliposomes were exposed to ultraviolet light
